Assays:
[1] = system: NY p81 specific CD8+ T cells; assay: Specific CD8+ T cell induction in mice, intracellular cytokine staining (NY p81 epitope); assay type: in vivo, BALB/c mice; conditions: FIG. 6; comparing one to six tyrosines
Source text: A long chain peptide antigen ESO1 LP (native type) (Sequence No. 16) and a long chain peptide antigen ESO1 LP (Y6) (Sequence No. 17), both containing a mouse CD8+ T cell epitope sequence (NY p81 or NY p82) and a mouse CD4+ T cell epitope sequence (NY p91) that are derived from human NY-ESO-1 antigen, were synthesized. As the interepitope sequence between epitopes, the native amino acid sequence of NY-ESO-1 was retained in the ESO1 LP (native type) and the sequence of six consecutive tyrosines (Y6) was used in the ESO1 LP (Y6). Vaccines containing the respective long chain peptide antigens were administered to mice in the same manner as in FIG. 1 and the frequencies of CD8+ T cells and CD4+ T cells specific to the respective epitope sequences were measured by the intracellular cytokine staining method.
(§1) Long chain peptide antigens MEN, all containing three types of mouse CD8+ T cell epitope sequences (MA p265 (Sequence No. 27), NY p81 (Sequence No. 29), and mERK2 9m (Sequence No. 28)), were synthesized. The interepitope sequences between the respective epitopes were one to six consecutive tyrosines (Sequence Nos. 1 and 9-12). Vaccines containing the respective long chain peptide antigens were administered to mice in the same manner as in FIG. 1 and the frequencies of CD8+ T cells specific to the respective epitope sequences were measured by the intracellular cytokine staining method.
as §1, with “five” for “one”, “ten” for “six”, “13-15).” for “9-12).”, “method. […]” for “method.”

[2] = system: CD11c+ cells (dendritic cells); assay: In vitro uptake of FAM-labeled long chain peptide antigens by antigen-presenting cells (dendritic cells); assay type: cell-based; conditions: FIG. 8, complexed with CHP, 10 μg/mL, mouse spleen cells, 60 minutes, in comparison to G6 and P6
Source text: Long chain peptide antigens MEN, all containing three types of mouse CD8+ T cell epitope sequences (MA p265 (Sequence No. 27), NY p81 (Sequence No. 29), and mERK2 9m (Sequence No. 28)), were synthesized. The interepitope sequences between the respective epitopes were respectively six consecutive tyrosines (Y6), six consecutive glycines (G6), or six consecutive prolines (P6) (Sequence Nos. 1-3). Each long chain peptide antigen, labeled with the fluorescent dye FAM, was complexed with CHP and administered in vitro to mouse dendritic cells and mouse macrophages. After 60 minutes, the fluorescence uptakes into the respective cells were measured by flow cytometry with the P5 fraction in the figure being deemed to correspond to the dendritic cells and the P6 fraction in the figure being deemed to correspond to the macrophages.
In vitro uptake of the long chain peptide antigens by antigen-presenting cells was measured as follows. Each long chain peptide labeled with a fluorescent dye was complexed with CHP by the method described above. Spleen cells separated from a normal mouse were added at 1×10^6 cells/0.5 mL/well to a 24-well plate. […] The uptake of the fluorescence-labeled long chain peptide antigens by CD11c^+ cells (dendritic cells) and F4/80^+ cells (macrophages) were observed using flow cytometry.

[3] = system: MA p265 specific CD8+ T cells; assay: Specific CD8+ T cell induction in mice, intracellular cytokine staining (MA p265 epitope); assay type: in vivo, BALB/c mice; conditions: FIG. 6; comparing one to six tyrosines
Procedure: as §1
as §1, with “five” for “one”, “ten” for “six”, “13-15).” for “9-12).”
Each CHP/long chain peptide complex as the vaccine and the CpG oligo DNA as the adjuvant were administered at the same time to a mouse. Administration was performed by subcutaneous injection on the back of the mouse. […]

SNPARYEFLYYYYYYQYIHSANVLYYYYYYRGPESRLL (Long chain peptide antigen, containing three types of mouse CD8+ T cell epitope sequences (MA p265, NY p81, and mERK2 9m)) [MEN(Y6)]
induction of specific CD8+ T cells, NY p81 (third epitope) [1]: highest | fluorescence uptake into dendritic cells [2]: significantly higher | induction of specific CD8+ T cells, MA p265 (first epitope) [3]: highest

From patent US11179450B2, “Long chain antigen containing interepitope sequence that promotes antigen presentation to T cells” (MIE UNIVERSITY, priority 2013, dated 2021)
